# According to US20260262691A1, “USE OF VANILLYL ETHERS TO MODIFY FLAVOR” (Firmenich Incorporated, priority 2023, published 2026):
# What was measured:
# [1] = Sensory panel rating of bitterness and astringency of liquid pea protein concentrate with vanillyl ethers; format: in vivo; conditions: pea protein 3 percent by weight in water, without sugar; vanillyl ether 0.5 ppm; sensory panelists, scale from 0 to 10
# Protocol: Liquid pea protein concentrate compositions were prepared (3 percent by weight in water) without sugar added. Control and test samples were prepared. To two test samples vanillyl ethyl ether (VEE) and vanillyl butyl ether (VBE) were added, respectively, at a concentration of 0.5 ppm. The control and test samples were evaluated by sensory panelists to rate the bitterness and astringency of the control sample and the two test samples on a scale from 0 to 10. Table 2 reports the mean difference between the bitterness and astringency scores between the control sample and each of the two test samples.
# [2] = Sensory panel rating of characteristics of lemon tea beverage with vanillyl ethers; format: in vivo; conditions: lemon tea beverage with Stevia sweetener, VEE 0.5 ppm (phloretin 8 ppm where combined), scale from 0 to 10, higher = more intense
# Protocol: Samples of a lemon tea beverage were prepared.
# Two test samples were prepared by adding (a) vanillyl ethyl ether (VEE) at a concentration of 0.5 ppm, and (b) vanillyl ethyl ether (VEE) at a concentration of 0.5 ppm and phloretin at a concentration of 8 ppm. The control and test samples were evaluated by sensory panelists to rate various characteristics of the control sample and the two test samples on a scale from 0 to 10.
SMILES,Astringency: mean difference between scores of control sample and test sample [1],Bitterness: mean difference between scores of control sample and test sample [1],Off Note Intensity (mean score) ([2]; control 2.9),Astringency (mean score) ([2]; control 3.0),Mouthfeel (mean score) ([2]; control 3.1),Bitterness (mean score) ([2]; control 3.8),Unfront Sweetness (mean score) ([2]; control 4.5),Lemon Flavor (mean score) ([2]; control 4.6),Lingering Sweetness (mean score) ([2]; control 4.9),Peak Sweetness (mean score) ([2]; control 5.4)
"CCCCOCc1ccc(O)c(OC)c1 [VBE, 4-(butoxymethyl)-2-methoxyphenol]",−2.2,−1.0,,,,,,,,
"CCOCc1ccc(O)c(OC)c1 [VEE, 4-(ethoxymethyl)-2-methoxyphenol]",−1.5,−0.5,2.4,2.1,3.5,2.7,4.7,4.8,4.0,5.4
